What was measured:
[1] = molecular target: T1, human androgen receptor (hAR) (Homo sapiens, UniProt P10275); assay: Competitive binding analysis on baculovirus/Sf9 generated hAR extracts with 3H-DHT tracer; details: AR Binding IC50 (nM), hAR extract, 1 nM 3H-DHT, one hour at 4° C; mean of multiple tests
T1 construct: made in house; host or cells: baculovirus/Sf9 insect cells (crude extract)
T1 sequence (P10275 1-920): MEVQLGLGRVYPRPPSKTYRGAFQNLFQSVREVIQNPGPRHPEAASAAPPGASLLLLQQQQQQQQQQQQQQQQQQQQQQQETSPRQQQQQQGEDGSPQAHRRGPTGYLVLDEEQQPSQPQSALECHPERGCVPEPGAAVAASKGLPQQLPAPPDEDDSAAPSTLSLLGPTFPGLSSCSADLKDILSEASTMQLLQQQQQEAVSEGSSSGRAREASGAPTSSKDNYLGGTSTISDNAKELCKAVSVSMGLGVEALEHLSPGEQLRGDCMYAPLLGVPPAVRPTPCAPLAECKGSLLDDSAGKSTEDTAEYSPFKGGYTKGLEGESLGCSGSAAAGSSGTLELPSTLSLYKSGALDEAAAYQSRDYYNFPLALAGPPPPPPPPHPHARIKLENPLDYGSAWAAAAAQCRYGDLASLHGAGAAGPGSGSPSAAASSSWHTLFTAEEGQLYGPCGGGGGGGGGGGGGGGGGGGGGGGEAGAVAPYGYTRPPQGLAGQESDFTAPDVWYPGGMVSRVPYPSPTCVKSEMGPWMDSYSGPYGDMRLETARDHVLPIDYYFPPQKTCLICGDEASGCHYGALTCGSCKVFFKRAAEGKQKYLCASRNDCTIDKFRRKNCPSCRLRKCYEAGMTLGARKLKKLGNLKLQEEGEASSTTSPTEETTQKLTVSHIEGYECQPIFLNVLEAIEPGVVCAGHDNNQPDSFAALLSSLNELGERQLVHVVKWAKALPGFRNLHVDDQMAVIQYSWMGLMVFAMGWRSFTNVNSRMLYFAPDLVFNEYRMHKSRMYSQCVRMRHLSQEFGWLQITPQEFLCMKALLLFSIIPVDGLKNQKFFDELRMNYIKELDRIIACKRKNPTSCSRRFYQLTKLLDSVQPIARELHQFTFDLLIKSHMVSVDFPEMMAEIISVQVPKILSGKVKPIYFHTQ
Procedure, shortened: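 Baculovirus/Sf9-expressed hAR extract incubated with hydroxylapatite, 1 nM 3H-DHT and decreasing compound concentrations for 1 h at 4 °C, then washed three times to remove unbound tracer. Bound 3H-DHT compared with no-competitor maximum; affinity given as concentration inhibiting half of maximum binding, mean of multiple tests.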

male C3H/HeN mice = assay: Modified telogen conversion assay (animal model for androgenetic alopecia); assay type: in vivo, mouse; details: 3 w/v % topical, twice daily for 4 weeks
Excerpt: It has been discovered that male C3H/HeN mice may be used in the telogen conversion assay, when evaluating anti-androgen test compounds. Thus, the model relates to a modification of the existing telogen conversion assay. Male C3H/HeN mice approximately 7 weeks old are utilized. These animals are also uniformly in telogen, like their female counterparts. However, once shaven, the androgens inherently present in these male mice inhibit the conversion of the hair follicles to the anagen phase. An anti-androgen will block this androgenic effect and the follicles will convert to anagen, like their female counterparts.
The compound described in Example 1 was submitted for further testing utilizing the modified telogen conversion assay, described above. The testing was carried out in the following manner.
Male C3H/HeN mice, 6 to 7 weeks old (Charles River Laboratories, Raleigh, N.C.) were used for the study. Fur was clipped from the dorsal region of the mice prior to initiation of the study. Only mice with pink skin, a visual indication of the telogen phase, were selected for inclusion in the study. […]
The treatment area was observed and graded every other day for signs of hair growth. The hair growth response was quantified by recording, for each animal, the day on which signs of hair growth first appeared over the treated area. […]

SMILES	IC50 [1] [nM]	Induction of anagen (first signs of hair growth) versus vehicle control (male C3H/HeN mice)
CC(C)CC(Oc1ccc(C#N)c(C(F)(F)F)c1)C(=O)NCc1ccccc1 (stereo not drawn) [Example 1, 2-(4-Cyano-3-trifluoromethyl-phenoxy)-4-methyl-pentanoic acid benzylamide]	95	–
CCCC(Oc1ccc(C#N)c(C(F)(F)F)c1)C(=O)NCc1ccccc1 (stereo not drawn) [Example 4, 2-(4-Cyano-3-trifluoromethyl-phenoxy)-pentanoic acid benzylamide]	445	Anagen did not occur in the test group prior to its initiation in the vehicle control group

Source: US7507860B2 (Pfizer Inc., priority 2004, dated 2009)
